Experimental data reported in patent US20230278972A1, “SUBSTITUTED HALOALKYL SULFONANILIDE HERBICIDES” (FMC Corporation, priority 2020, published 2023).

How the values were obtained:
Type in all cases: in vivo
[1] = system: wheat (Triticum aestivum); test: Test A postemergence, wheat; settings: Postemergence
Summary of the method: (§1)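 Barnyardgrass, wheat and galium were treated postemergence at the one- to two-leaf stage (2 to 10 cm) with chemicals formulated in non-phytotoxic solvent plus surfactant, grown in loam soil–sand pots. Pigweed was sown in the same blend and given a preemergence directed soil spray.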

[2] = system: Ryegrass, Italian (Italian ryegrass, Lolium multiflorum); test: Test A preemergence, Ryegrass, Italian; settings: Preemergence; for Ryegrass, Italian plant response rating: 125 g ai/ha, visual injury on 0 to 100 scale (0 no effect, 100 complete control), approximately 10 days; for Plant response rating, Ryegrass, Italian: 0 to 100 scale (0 no effect, 100 complete control)
Summary of the method: (§2)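 Preemergence: seeded pots of loam plus sand received a directed soil spray. Postemergence: seedlings at one to two leaves, 2 to 10 cm high, were oversprayed. Each compound was formulated in a non-phytotoxic solvent mix that included a surfactant.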

[3] = system: pigweed (Amaranthus retroflexus); test: Test A preemergence, pigweed; settings: for Pigweed plant response rating: 125 g ai/ha, visual injury on 0 to 100 scale (0 no effect, 100 complete control), approximately 10 days; for Plant response rating, Pigweed: 0 to 100 scale (0 no effect, 100 complete control)
Summary of the method: as §1

[4] = system: barnyardgrass (Echinochloa crus-galli); test: Test A postemergence, barnyardgrass; settings: Postemergence, 0 to 100 scale (0 no effect, 100 complete control)
Summary of the method: as §1

kochia (Bassia scoparia) [5] = test: Test A preemergence, kochia; settings: Preemergence; for Kochia plant response rating: 125 g ai/ha, visual injury on 0 to 100 scale (0 no effect, 100 complete control), approximately 10 days; for Plant response rating, Kochia: 0 to 100 scale (0 no effect, 100 complete control)
Summary of the method: as §2

[6] = system: pigweed (Amaranthus retroflexus); test: Test A postemergence, pigweed; settings: Postemergence
Summary of the method: as §2

[7] = system: galium (catchweed bedstraw, Galium aparine); test: Test A postemergence, galium; settings: Postemergence
Summary of the method: as §1

[8] = system: ragweed (common ragweed, Ambrosia artemisiifolia); test: Test A preemergence, ragweed; settings: Preemergence; for Ragweed plant response rating: 125 g ai/ha, visual injury on 0 to 100 scale (0 no effect, 100 complete control), approximately 10 days; for Plant response rating, Ragweed: 0 to 100 scale (0 no effect, 100 complete control)
Summary of the method: as §2

[9] = system: blackgrass (Alopecurus myosuroides); test: Test A postemergence, blackgrass; settings: Postemergence, 0 to 100 scale (0 no effect, 100 complete control)
Summary of the method: as §2

[10] = system: Foxtail, Giant (giant foxtail, Setaria faberi); test: Test A preemergence, Foxtail, Giant; settings: Preemergence; for Foxtail, Giant plant response rating: 125 g ai/ha, visual injury on 0 to 100 scale (0 no effect, 100 complete control), approximately 10 days; for Plant response rating, Foxtail, Giant: 0 to 100 scale (0 no effect, 100 complete control)
Summary of the method: as §2

[11] = system: ragweed (common ragweed, Ambrosia artemisiifolia); test: Test A postemergence, ragweed; settings: Postemergence
Summary of the method: as §2

[12] = system: Foxtail, Giant (giant foxtail, Setaria faberi); test: Test A postemergence, Foxtail, Giant; settings: Postemergence
Summary of the method: as §2

[13] = system: barnyardgrass (Echinochloa crus-galli); test: Test A preemergence, barnyardgrass; settings: Preemergence; for Barnyardgrass plant response rating: 125 g ai/ha, visual injury on 0 to 100 scale (0 no effect, 100 complete control), approximately 10 days; for Plant response rating, Barnyardgrass: 0 to 100 scale (0 no effect, 100 complete control)
Summary of the method: as §2

[14] = system: Ryegrass, Italian (Italian ryegrass, Lolium multiflorum); test: Test A postemergence, Ryegrass, Italian; settings: Postemergence
Summary of the method: as §2

kochia (Bassia scoparia) [15] = test: Test A postemergence, kochia; settings: Postemergence
Summary of the method: as §2

corn (Zea mays) = test: Test A postemergence, corn; settings: Postemergence
Summary of the method: as §2

[16] = 125 g ai/ha, visual injury approx. 10 days, 0 to 100 scale (0 no effect, 100 complete control)
[17] = 500 g ai/ha, visual injury, 0 to 100 scale (0 no effect, 100 complete control), approx. 10 days
[18] = 125 g ai/ha, visual injury approx. 10 days
[19] = 500 g ai/ha, visual injury, approx. 10 days
[20] = 31 g ai/ha, visual injury on 0 to 100 scale (0 no effect, 100 complete control), approx. 10 days
[21] = 125 g ai/ha, 0 to 100 scale (0 no effect, 100 complete control)
[22] = 31 g ai/ha, visual injury, approx. 10 days
[23] = 500 g ai/ha, visual injury vs untreated controls after approx. 10 days, 0 to 100 scale (0 no effect, 100 complete control)
[24] = 500 g ai/ha, visual injury vs untreated controls after approx. 10 days

| Compound | Plant response rating, Wheat [1, 16] | Ryegrass, Italian plant response rating [2] | Plant response rating, Ryegrass, Italian ([2]; 500 g ai/ha) | Pigweed plant response rating [3] | Plant response rating, Pigweed ([3]; 500 g ai/ha) | Plant response rating, Barnyardgrass [4, 18] | Kochia plant response rating (kochia (Bassia scoparia) [5]) | Plant response rating, Kochia (kochia (Bassia scoparia) [5]; 500 g ai/ha) | Plant response rating, Pigweed [6, 16] | Plant response rating, Galium [7, 16] | Ragweed plant response rating [8] | Plant response rating, Ragweed ([8]; 500 g ai/ha) | Plant response rating, Blackgrass [9, 18] | Foxtail, Giant plant response rating [10] | Plant response rating, Foxtail, Giant ([10]; 500 g ai/ha) | Plant response rating, Ragweed [11, 16] | Plant response rating, Foxtail, Giant [12, 16] | Barnyardgrass plant response rating [13] | Plant response rating, Kochia (kochia (Bassia scoparia) [15]; [16]) | Plant response rating, Corn (corn (Zea mays); [16]) | also measured |
| --- | --- | --- | --- | --- | --- | --- | --- | --- | --- | --- | --- | --- | --- | --- | --- | --- | --- | --- | --- | --- | --- |
| CCn1cc(-c2cc(N(S(=O)(=O)C(F)(F)F)S(=O)(=O)C(F)(F)F)c(C)cc2C)c(=O)n(C)c1=O [Compound 30] | 60 | 90 | 90 | 20 | 60 | 90 | 70 | 90 | 40 | 70 | 20 | 40 | 60 | 80 | 100 | 40 | 70 | 90 | 10 | 0 | Plant response rating, Wheat [1, 17]: 70; Plant response rating, Barnyardgrass [4, 19]: 90; Plant response rating, Pigweed [6, 17]: 60; Plant response rating, Galium [7, 17]: 90; Plant response rating, Blackgrass [9, 19]: 80; Plant response rating, Ragweed [11, 17]: 40; Plant response rating, Foxtail, Giant [12, 17]: 90; Plant response rating, Barnyardgrass ([13]; 500 g ai/ha): 90; Plant response rating, Ryegrass, Italian [14, 16]: 40; Plant response rating, Ryegrass, Italian [14, 17]: 70; Plant response rating, Kochia (kochia (Bassia scoparia) [15]; [17]): 50; Plant response rating, Corn (corn (Zea mays); [17]): 40 |
| COC1CCCN(C(=O)c2cc(NS(=O)(=O)C(F)(F)F)c(C)cc2C)CC1 (stereo not drawn) [Compound 137] |  | 100 |  | 100 |  | 30 | 30 |  |  | 80 | 60 |  | 0 | 100 |  |  | 0 | 100 | 20 | 30 | Plant response rating, Wheat [1, 20]: 0; Plant response rating, Wheat [1, 21]: 0; Plant response rating, Ryegrass, Italian [2, 22]: 60; Plant response rating, Pigweed [3, 22]: 80; Plant response rating, Barnyardgrass ([4]; 31 g ai/ha): 10; Plant response rating, Kochia (kochia (Bassia scoparia) [5]; [22]): 30; Plant response rating, Pigweed [6, 20]: 50; Plant response rating, Pigweed [6, 21]: 30; Plant response rating, Galium [7, 20]: 30; Plant response rating, Ragweed [8, 22]: 20; Plant response rating, Blackgrass ([9]; 31 g ai/ha): 0; Plant response rating, Foxtail, Giant [10, 22]: 50; Plant response rating, Ragweed [11, 20]: 0; Plant response rating, Ragweed [11, 21]: 10; Plant response rating, Foxtail, Giant [12, 20]: 0; Plant response rating, Barnyardgrass [13, 22]: 20; Plant response rating, Ryegrass, Italian [14, 20]: 0; Plant response rating, Ryegrass, Italian [14, 21]: 0; Plant response rating, Kochia (kochia (Bassia scoparia) [15]; [20]): 0; Plant response rating, Corn (corn (Zea mays); [20]): 30 |
| Cc1cc(C)c(N(S(=O)(=O)C(F)(F)F)S(=O)(=O)C(F)(F)F)cc1-c1cc(Br)nn(C)c1=O [Compound 67] | 30 | 80 | 90 | 50 | 80 | 0 | 0 | 70 | 30 | 50 | 0 | 60 | 0 | 90 | 100 | 0 | 10 | 70 | 10 | 0 | Wheat plant response rating [1, 23]: 60; Barnyardgrass plant response rating [4, 24]: 40; Pigweed plant response rating [6, 23]: 80; Galium plant response rating [7, 23]: 60; Blackgrass plant response rating [9, 24]: 60; Ragweed plant response rating [11, 23]: 10; Foxtail, Giant plant response rating [12, 23]: 70; Plant response rating, Barnyardgrass ([13]; 500 g ai/ha): 100; Plant response rating, Ryegrass, Italian [14, 16]: 0; Ryegrass, Italian plant response rating [14, 23]: 60; Kochia plant response rating (kochia (Bassia scoparia) [15]; [23]): 40; Corn plant response rating (corn (Zea mays); [23]): 0 |
